Experimental data: article PMC10115881, “Disrupting the α-synuclein-ESCRT interaction with a peptide inhibitor mitigates neurodegeneration in preclinical models of Parkinson’s disease” (Nature Communications, 2023)

Assays:
[1] = system: pS129 a-syn puncta; assay: PFF-induced a-syn seeding, pS129 a-syn puncta in cortical neurons; type: cell-based, rat
Description: PFFs synthesized from recombinant human a-syn were added to primary neuronal cultures to seed recruitment of endogenous a-syn into pS129 a-syn^+ aggregates. Recombinant human a-syn PFFs were purchased from StressMarq Biosciences (SPR-322B). Cells were plated on poly-D-lysine coated glass coverslips in 24-well cell culture plates at a density of 5 × 10^5 cells/well, and incubated at 37 °C in 5% CO2 with half media changes every 3 days. […] On day 8 post-isolation, cells were treated with 1.5 µg of recombinant a-syn PFFs. […]
Confocal images of primary cortical neurons, iPSC-derived dopaminergic neurons, and LAMP1 staining within the SN were processed using Imaris software (Oxford instruments). […] Mean pixel intensity per GFP^+ cell (for experiments using GFP-tagged peptides) or RFP^+ cell (for experiments using RFP-tagged peptides) was calculated for a-syn or LAMP1 signal using the software’s surfaces module. The software’s surfaces module was used to identify GFP^+/NeuN^+ cells, and number of pS129 a-syn^+ puncta per GFP^+/NeuN^+ cortical neuron was counted using the software’s spots module. Mean pixel intensity per RFP^+/NeuN^+ cortical neuron was calculated for Rab7, cathepsin B, or cathepsin D signals using the software’s surfaces module. […]

[2] = system: Δa-syn(103–140); assay: Truncated a-syn (103-140 lacking) HA immunofluorescence in rat cortical neurons; type: cell-based; conditions: a-syn lacking amino acids 103–140
Excerpt: Adeno-associated virus (AAV) of a 1/2 serotype was used to express A53T a-syn (AAV-A53T), a truncated version of A53T a-syn lacking amino acids 103–140 (Δa-syn(103–140)), and WT a-syn, fused to either the N-terminal half of YFP (AAV-V1S) or the C-terminal half of YFP (AAV-SV2), all under the control of the CAG promoter, a hybrid of the chicken beta-actin (CBA) promoter fused with the cytomegalovirus (CMV) immediate early enhancer sequence (GeneDetect Ltd.)[46].
Pregnant rats (E17) of the Sprague-Dawley strain were purchased from Envigo. Embryos were surgically removed from the mothers and cortices dissected in Hanks Balanced salt solution (Gibco). […]
(§1) After fixation, cells were permeabilized with 0.2% Triton-X-100 for 15 min, washed three times with PBS and then incubated with blocking solution (1% BSA, 22.52 mg/mL glycine, 0.1% Tween-20 in PBS or 0.4% saponin, 1% BSA, and 5% goat or donkey serum in PBS) for 1 h. […] Following another three washes with PBS, nuclei were counterstained with DAPI (ThermoFisher) and then coverslips were mounted on slides using Dako fluorescence mounting medium (Agilent) and sealed using clear nail varnish.

[3] = system: LAMP1; assay: LAMP1 levels in HEK293 cells; type: cell-based, human; conditions: A53T a-syn overexpression
Description: Infected or transfected cells were scraped from six-well dishes and lysed with lysis buffer (50 mM Tris-HCl pH 7.4, 1% Nonidet P-40, 150 mM NaCl, 1 mM EDTA, 1× protease inhibitor mixture (Sigma)) for 30 min at 4 °C. The insoluble pellet was removed following a 10,000 rpm spin for 5 min at 4 °C. Lysates were analyzed by SDS-PAGE/immunoblot using 4–20% Mini-PROTEAN Tris-glycine gels (Bio-Rad), transferred to polyvinylidene fluoride (PVDF) membranes, and blocked in 5% milk containing PBS-Tween-20 (0.1%) for 1 h. PVDF membranes were then incubated with specified primary antibodies followed by incubation with horseradish peroxidase-conjugated secondary antibodies (anti-mouse HRP-linked, Cell Signaling, catalog #7076, 1:5000; anti-rabbit HRP-linked, Cell Signaling, catalog #7074, 1:5000) and detected using enhanced chemiluminescence (GE Healthcare). […]
as §1

[4] = system: LAMP1; assay: LAMP1 fluorescence in rat cortical neurons; type: cell-based; conditions: A53T a-syn
Excerpt: Pregnant rats (E17) of the Sprague-Dawley strain were purchased from Envigo. Embryos were surgically removed from the mothers and cortices dissected in Hanks Balanced salt solution (Gibco). The meninges were removed, and cells were dissociated using a papain dissociation system (Worthington) before being resuspended in Neurobasal medium A supplemented with antibiotic-antimycotic solution (Gibco), L-glutamine substitute (GlutaMAX™; Gibco) and factor B27 (Gibco). […]
as §1
Confocal images of primary cortical neurons, iPSC-derived dopaminergic neurons, and LAMP1 staining within the SN were processed using Imaris software (Oxford instruments). […] Mean pixel intensity per GFP^+ cell (for experiments using GFP-tagged peptides) or RFP^+ cell (for experiments using RFP-tagged peptides) was calculated for a-syn or LAMP1 signal using the software’s surfaces module. […]

DEEIERQLKALG [PDpep1.3]
Effect on endogenous a-syn aggregates [1]: reduced the number of endogenous a-syn aggregates | Effect on truncated a-syn levels [2]: did not reduce levels of this truncated a-syn | Effect on LAMP1 levels, HEK293 [3]: LAMP1 levels were restored | Effect on LAMP1, neurons [4]: restored LAMP1 levels
